Test results published in patent US8394592B2, “Methods for assessing cancer susceptibility to carcinogens in tobacco products” (The Board of Regents of the University of Texas System, priority 2006, dated 2013).

System: peripheral blood lymphocytes
Experiment: Cytokinesis-block micronucleus (CBMN) assay, NNK-treated lymphocyte cultures of lung cancer cases and controls
Format: cell-based, human
Settings: 0.24 mM NNK
Protocol: The CBMN test was performed using the cytochalasin B technique described by Fenech and Morley (22) and following recommendations from The International Collaborative Project on Micronucleus Frequency in Human Populations (HUMN Project) to measure MN, NPBs and NBUDs in untreated cells and NNK-treated cells (27). Duplicate lymphocyte cultures were prepared for each study subject. Each culture contained 2.0×10^6 cells in 5 mL RPMI 1640 medium supplemented with 100 U/mL penicillin, 100 μg/mL streptomycin, 10% fetal bovine serum, and 2 mM L-glutamine (Gibco-Invitrogen, Carlsbad, Calif.) and 1% phytohemagglutinin (Remel, Lenexa, Kans.). For the cultures treated with NNK, 24 hours after initiation, the PBLs were centrifuged and the supernatant growth medium was removed and reserved. The PBLs were resuspended in 5 mL of serum-free RPMI 1640 medium supplemented with 0.24 mM NNK (a dose previously used by us and others (23-26) (CAS No. 64091-91-4, National Cancer Institute, Midwest Carcinogen Repository, Kansas City, Mo.; purity>98%) and incubated at 37° C. in the presence of 5% CO2 for 2 hours.
Next, the PBLs were washed twice with serum-free RPMI 1640, transferred to clean tubes and re-incubated for […] in the reserved supernatant. At 44 hours after initiation, cells were blocked in cytokinesis by adding cytochalasin B (Sigma, St. Louis, Mo.; final concentration 4 µg/mL). Similarly, cultures for the determination of spontaneous damage (untreated cells) were handled in the same manner, with the exception of treatment with NNK. The total incubation time for all cultures was 72 hours. After incubation, the cells were fixed in 3:1 methanol:glacial acetic acid, dropped onto clean microscopic slides, air-dried and stained with Giemsa stain. For each sample, 1000 binucleated cells were scored blindly using a Nikon E-400 light optical microscope following the scoring criteria outlined by HUMN Project (2,22,27); the numbers of MN, NPBs, and NBUDs per 1000 binucleated cells were recorded. For quality control, 20% of the slides were randomly selected and blindly rescored and the results compared with the original scoring.

[1] = Case, History of Alcohol Use No
[2] = Case, History of Alcohol Use Yes

CN(CCCC(=O)c1cccnc1)N=O [NNK, 4-(methylnitrosamino)-1-(3-pyridyl)-1-butanone]
NNK-induced MN, Mean ± SE (Case, Age > 62): 4.54 ± 0.22 per 1000 binucleated cells | NNK-induced MN, Median (Case, Age > 62): 4.0 per 1000 binucleated cells | NNK-induced NBUDs, Mean ± SE (Case, Age > 62): 0.90 ± 0.17 per 1000 binucleated cells | NNK-induced NBUDs, Median (Case, Age > 62): 1.0 per 1000 binucleated cells | NNK-induced NPBs, Mean ± SE (Case, Age > 62): 8.15 ± 0.33 per 1000 binucleated cells | NNK-induced NPBs, Median (Case, Age > 62): 8.0 per 1000 binucleated cells | NNK-induced MN, Mean ± SE (Case, Age ≦ 62): 4.22 ± 0.11 per 1000 binucleated cells | NNK-induced MN, Median (Case, Age ≦ 62): 4.0 per 1000 binucleated cells | NNK-induced NBUDs, Mean ± SE (Case, Age ≦ 62): 1.12 ± 0.11 per 1000 binucleated cells | NNK-induced NBUDs, Median (Case, Age ≦ 62): 1.0 per 1000 binucleated cells | NNK-induced NPBs, Mean ± SE (Case, Age ≦ 62): 8.11 ± 0.23 per 1000 binucleated cells | NNK-induced NPBs, Median (Case, Age ≦ 62): 8.0 per 1000 binucleated cells | NNK-induced MN, Mean ± SE (Case, Females): 4.19 ± 0.17 per 1000 binucleated cells | NNK-induced MN, Median (Case, Females): 4.0 per 1000 binucleated cells | NNK-induced NBUDs, Mean ± SE (Case, Females): 1.07 ± 0.12 per 1000 binucleated cells | NNK-induced NBUDs, Median (Case, Females): 1.0 per 1000 binucleated cells | NNK-induced NPBs, Mean ± SE (Case, Females): 8.24 ± 0.32 per 1000 binucleated cells | NNK-induced NPBs, Median (Case, Females): 8.0 per 1000 binucleated cells | NNK-induced MN, Mean ± SE [1]: 4.26 ± 0.14 per 1000 binucleated cells | NNK-induced MN, Median [1]: 4.00 per 1000 binucleated cells | NNK-induced NBUDs, Mean ± SE [1]: 1.09 ± 0.18 per 1000 binucleated cells | NNK-induced NBUDs, Median [1]: 1.00 per 1000 binucleated cells | NNK-induced NPBs, Mean ± SE [1]: 8.04 ± 0.32 per 1000 binucleated cells | NNK-induced NPBs, Median [1]: 8.00 per 1000 binucleated cells | NNK-induced MN, Mean ± SE [2]: 4.37 ± 0.14 per 1000 binucleated cells | NNK-induced MN, Median [2]: 4.00 per 1000 binucleated cells | NNK-induced NBUDs, Mean ± SE [2]: 1.04 ± 0.11 per 1000 binucleated cells | NNK-induced NBUDs, Median [2]: 1.00 per 1000 binucleated cells | NNK-induced NPBs, Mean ± SE [2]: 8.14 ± 0.24 per 1000 binucleated cells | NNK-induced NPBs, Median [2]: 8.00 per 1000 binucleated cells | NNK-induced MN, Mean ± SE (Case, Males): 4.37 ± 0.13 per 1000 binucleated cells | NNK-induced MN, Median (Case, Males): 4.0 per 1000 binucleated cells | NNK-induced NBUDs, Mean ± SE (Case, Males): 1.07 ± 0.11 per 1000 binucleated cells | NNK-induced NBUDs, Median (Case, Males): 1.0 per 1000 binucleated cells | NNK-induced NPBs, Mean ± SE (Case, Males): 8.07 ± 0.23 per 1000 binucleated cells | NNK-induced NPBs, Median (Case, Males): 8.0 per 1000 binucleated cells | NNK-induced MN, Mean ± SE (Case, Overall): 4.32±0.10 per 1000 binucleated cells | NNK-induced MN, Median (Case, Overall): 4.0 per 1000 binucleated cells | NNK-induced NBUDs, Mean ± SE (Case, Overall): 1.07±0.09 per 1000 binucleated cells | NNK-induced NBUDs, Median (Case, Overall): 1.0 per 1000 binucleated cells | NNK-induced NPBs, Mean ± SE (Case, Overall): 8.12±0.19 per 1000 binucleated cells | NNK-induced NPBs, Median (Case, Overall): 8.0 per 1000 binucleated cells | NNK-induced MN, Mean ± SE (Case, Years smoked > 32): 4.33 ± 0.10 per 1000 binucleated cells | NNK-induced MN, Median (Case, Years smoked > 32): 4.0 per 1000 binucleated cells | NNK-induced NBUDs, Mean ± SE (Case, Years smoked > 32): 1.08 ± 0.01 per 1000 binucleated cells | NNK-induced NBUDs, Median (Case, Years smoked > 32): 1.0 per 1000 binucleated cells | NNK-induced NPBs, Mean ± SE (Case, Years smoked > 32): 8.07 ± 0.19 per 1000 binucleated cells | NNK-induced NPBs, Median (Case, Years smoked > 32): 8.0 per 1000 binucleated cells | NNK-induced MN, Mean ± SE (Case, Years smoked ≦ 32): 3.63 ± 0.32 per 1000 binucleated cells | NNK-induced MN, Median (Case, Years smoked ≦ 32): 4.0 per 1000 binucleated cells | NNK-induced NBUDs, Mean ± SE (Case, Years smoked ≦ 32): 1.13 ± 0.44 per 1000 binucleated cells | NNK-induced NBUDs, Median (Case, Years smoked ≦ 32): 1.0 per 1000 binucleated cells | NNK-induced NPBs, Mean ± SE (Case, Years smoked ≦ 32): 9.25 ± 0.96 per 1000 binucleated cells | NNK-induced NPBs, Median (Case, Years smoked ≦ 32): 8.3 per 1000 binucleated cells | NNK-induced MN, Mean ± SE (Control, Age > 62): 2.75 ± 0.15 per 1000 binucleated cells | NNK-induced MN, Median (Control, Age > 62): 3.0 per 1000 binucleated cells | NNK-induced NBUDs, Mean ± SE (Control, Age > 62): 0.10 ± 0.05 per 1000 binucleated cells | NNK-induced NBUDs, Median (Control, Age > 62): 0.0 per 1000 binucleated cells | NNK-induced NPBs, Mean ± SE (Control, Age > 62): 2.35 ± 0.14 per 1000 binucleated cells | NNK-induced NPBs, Median (Control, Age > 62): 2.0 per 1000 binucleated cells | NNK-induced MN, Mean ± SE (Control, Age ≦ 62): 2.58 ± 0.14 per 1000 binucleated cells | NNK-induced MN, Median (Control, Age ≦ 62): 2.0 per 1000 binucleated cells | NNK-induced NBUDs, Mean ± SE (Control, Age ≦ 62): 0.13 ± 0.04 per 1000 binucleated cells | NNK-induced NBUDs, Median (Control, Age ≦ 62): 0.0 per 1000 binucleated cells | NNK-induced NPBs, Mean ± SE (Control, Age ≦ 62): 2.41 ± 0.11 per 1000 binucleated cells | NNK-induced NPBs, Median (Control, Age ≦ 62): 2.0 per 1000 binucleated cells | NNK-induced MN, Mean ± SE (Control, Females): 2.51 ± 0.23 per 1000 binucleated cells | NNK-induced MN, Median (Control, Females): 2.0 per 1000 binucleated cells | NNK-induced NBUDs, Mean ± SE (Control, Females): 0.11 ± 0.05 per 1000 binucleated cells | NNK-induced NBUDs, Median (Control, Females): 1.0 per 1000 binucleated cells
